For four compounds, IC50, inhibition and Activity results are on record in ChEMBL document CHEMBL5038665, “Identification of the Benzoimidazole Compound as a Selective FLT3 Inhibitor by Cell-Based High-Throughput Screening of a Diversity Library” (J Med Chem, 2022).

One data set has as its system HL-60. The experiment in a line: Antiproliferative activity against human HL-60 cells expressing wild type FLT3 assessed as reduction in cell viability measured after 72 hrs by MTS assay. The class given is functional, cell-based. To be noted: HL-60, 72 h.
Data set [1] in a line: Antiproliferative activity against human ML-1 cells expressing wild type FLT3 assessed as reduction in cell viability measured after 72 hrs by MTS assay. The class given is functional, cell-based. To be noted: ML1, 72 h.
The nature of data set [2]: Antiproliferative activity against mouse Ba/F3 FLT3-ITD cells assessed as reduction in cell viability measured after 72 hrs by MTS assay. The data set is classed as functional, cell-based.
Another data set has as its system MOLM-13. In words: Antiproliferative activity against human MOLM-13 cells harboring FLT3-ITD mutant assessed as reduction in cell viability measured after 72 hrs by MTS assay. The class given is functional, cell-based. To be noted: MOLM-13, 72 h.
A short description of data set [3]: Antiproliferative activity against mouse BaF3 cells expressing wild type FLT3 assessed as reduction in cell viability measured after 72 hrs by MTS assay. The class given is toxicity, cell-based.
The test system of another data set is MV4-11. In words: Antiproliferative activity against human MV4-11 cells harboring FLT3-ITD mutant assessed as reduction in cell viability measured after 72 hrs ny MTS assay. The class given is functional, cell-based. As to conditions: MV4-11, 72 h.
In data set [4] the target is Receptor-type tyrosine-protein kinase FLT3 (Homo sapiens, UniProt P36888, ITD). The experiment in a line: Inhibition of FLT3-ITD mutant (unknown origin).
Data set [5] addresses Receptor-type tyrosine-protein kinase FLT3 (Homo sapiens) (UniProt P36888). In words: Inhibition of FLT3 phosphorylation in human MV4-11 cells assessed as reduction in phosphorylated FLT3 level at 0.3 to 100 nM by sandwich ELISA assay. The class given is cell-based. As to conditions: dose 0.3-100 nM.
Data set [6] concerns the target Mast/stem cell growth factor receptor Kit (Homo sapiens, UniProt P10721). The experiment in a line: Inhibition of KIT (unknown origin).
Data set [7] deals with Serine/threonine-protein kinase B-raf (Homo sapiens, UniProt P15056). The experiment in a line: Inhibition of BRAF (unknown origin).
Serine/threonine-protein kinase B-raf, sequence (P15056 whole entry): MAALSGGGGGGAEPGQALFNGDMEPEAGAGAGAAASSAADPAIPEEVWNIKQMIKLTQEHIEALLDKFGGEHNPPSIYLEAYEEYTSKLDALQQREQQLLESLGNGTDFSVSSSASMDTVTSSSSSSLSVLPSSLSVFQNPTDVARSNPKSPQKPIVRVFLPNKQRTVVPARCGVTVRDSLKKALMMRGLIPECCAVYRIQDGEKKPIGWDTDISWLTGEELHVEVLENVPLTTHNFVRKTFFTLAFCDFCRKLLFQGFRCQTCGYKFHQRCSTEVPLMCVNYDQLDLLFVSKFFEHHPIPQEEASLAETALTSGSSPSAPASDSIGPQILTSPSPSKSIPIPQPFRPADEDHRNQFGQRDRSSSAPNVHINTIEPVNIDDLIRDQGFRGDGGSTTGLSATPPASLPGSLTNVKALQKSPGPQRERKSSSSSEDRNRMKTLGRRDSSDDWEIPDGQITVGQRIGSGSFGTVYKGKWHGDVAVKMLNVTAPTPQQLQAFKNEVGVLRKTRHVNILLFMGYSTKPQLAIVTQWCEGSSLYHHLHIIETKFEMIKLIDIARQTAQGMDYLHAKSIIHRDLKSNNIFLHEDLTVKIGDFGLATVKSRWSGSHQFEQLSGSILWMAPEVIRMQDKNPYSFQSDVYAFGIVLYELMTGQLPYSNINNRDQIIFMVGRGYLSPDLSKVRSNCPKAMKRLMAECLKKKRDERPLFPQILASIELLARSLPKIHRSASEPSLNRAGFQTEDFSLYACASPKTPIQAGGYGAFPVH
The target in data set [8] is T1, Receptor-type tyrosine-protein kinase FLT3 (Mus musculus) (UniProt Q00342).
T1 sequence (whole entry): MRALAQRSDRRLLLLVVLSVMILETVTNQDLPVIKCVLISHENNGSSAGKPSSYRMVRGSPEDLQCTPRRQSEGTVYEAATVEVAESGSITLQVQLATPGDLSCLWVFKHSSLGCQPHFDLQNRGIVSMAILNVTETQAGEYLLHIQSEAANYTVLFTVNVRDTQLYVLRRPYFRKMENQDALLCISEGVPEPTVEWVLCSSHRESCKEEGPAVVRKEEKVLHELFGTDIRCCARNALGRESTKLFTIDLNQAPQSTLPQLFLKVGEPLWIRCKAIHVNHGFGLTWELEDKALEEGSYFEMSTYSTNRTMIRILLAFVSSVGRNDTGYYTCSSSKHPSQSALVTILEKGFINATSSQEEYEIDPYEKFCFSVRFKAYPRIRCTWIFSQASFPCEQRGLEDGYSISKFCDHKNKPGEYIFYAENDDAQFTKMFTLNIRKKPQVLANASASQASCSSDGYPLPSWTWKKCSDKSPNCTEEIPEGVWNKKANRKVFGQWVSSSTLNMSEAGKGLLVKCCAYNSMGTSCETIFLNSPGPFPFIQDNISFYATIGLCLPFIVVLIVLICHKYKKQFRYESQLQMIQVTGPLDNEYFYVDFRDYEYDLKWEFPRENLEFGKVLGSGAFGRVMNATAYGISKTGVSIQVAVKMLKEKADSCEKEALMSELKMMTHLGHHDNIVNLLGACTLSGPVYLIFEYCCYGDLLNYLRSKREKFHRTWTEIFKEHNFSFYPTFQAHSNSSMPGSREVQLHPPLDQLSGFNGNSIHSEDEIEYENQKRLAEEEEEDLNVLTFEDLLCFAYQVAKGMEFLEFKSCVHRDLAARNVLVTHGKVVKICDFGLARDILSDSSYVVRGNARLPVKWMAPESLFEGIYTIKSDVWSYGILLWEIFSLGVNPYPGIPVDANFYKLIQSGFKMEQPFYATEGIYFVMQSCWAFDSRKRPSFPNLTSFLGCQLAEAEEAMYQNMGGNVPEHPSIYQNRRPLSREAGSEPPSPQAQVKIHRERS
The experiment in a line: Inhibition of FLT3 phosphorylation in mouse Ba/F3 FLT3-ITD cells assessed as reduction in phosphorylated FLT3 level measured after 12 hrs by western blot analysis. The class given is cell-based.

In data set [9] the target is Receptor-type tyrosine-protein kinase FLT3 (Homo sapiens) (UniProt P36888). The experiment in a line: Inhibition of FLT3 phosphorylation in human MV4-11 cells assessed as reduction in phosphorylated FLT3 level measured after 12 hrs by western blot analysis. The class given is cell-based.
The target is the same in data set [10]. In words: Inhibition of FLT3-mediated signalling pathway in human MV4-11 cells assessed as inhibition of MAPK phosphorylation at 50 nM by western blot analysis. The data set is classed as cell-based. As to conditions: TDE = time-dependent effect.
The target in data set [11] is T1, Receptor-type tyrosine-protein kinase FLT3 (Mus musculus). The experiment in a line: Inhibition of FLT3-mediated signalling pathway in mouse Ba/F3 FLT3-ITD cells assessed as inhibition of MAPK phosphorylation at 50 nM by western blot analysis. The class given is cell-based. As to conditions: TDE = time-dependent effect.
Data set [12] has the same target. The experiment in a line: Inhibition of FLT3 phosphorylation in mouse Ba/F3 FLT3-ITD cells assessed as reduction in phosphorylated FLT3 level at 0.3 to 100 nM by sandwich ELISA assay. As to conditions: dose 0.3-100 nM. The data set is classed as cell-based.
The target in data set [13] is Fibroblast growth factor receptor 1 (Homo sapiens, UniProt P11362). In words: Inhibition of FGFR1 (unknown origin).
Fibroblast growth factor receptor 1, sequence (P11362 whole entry): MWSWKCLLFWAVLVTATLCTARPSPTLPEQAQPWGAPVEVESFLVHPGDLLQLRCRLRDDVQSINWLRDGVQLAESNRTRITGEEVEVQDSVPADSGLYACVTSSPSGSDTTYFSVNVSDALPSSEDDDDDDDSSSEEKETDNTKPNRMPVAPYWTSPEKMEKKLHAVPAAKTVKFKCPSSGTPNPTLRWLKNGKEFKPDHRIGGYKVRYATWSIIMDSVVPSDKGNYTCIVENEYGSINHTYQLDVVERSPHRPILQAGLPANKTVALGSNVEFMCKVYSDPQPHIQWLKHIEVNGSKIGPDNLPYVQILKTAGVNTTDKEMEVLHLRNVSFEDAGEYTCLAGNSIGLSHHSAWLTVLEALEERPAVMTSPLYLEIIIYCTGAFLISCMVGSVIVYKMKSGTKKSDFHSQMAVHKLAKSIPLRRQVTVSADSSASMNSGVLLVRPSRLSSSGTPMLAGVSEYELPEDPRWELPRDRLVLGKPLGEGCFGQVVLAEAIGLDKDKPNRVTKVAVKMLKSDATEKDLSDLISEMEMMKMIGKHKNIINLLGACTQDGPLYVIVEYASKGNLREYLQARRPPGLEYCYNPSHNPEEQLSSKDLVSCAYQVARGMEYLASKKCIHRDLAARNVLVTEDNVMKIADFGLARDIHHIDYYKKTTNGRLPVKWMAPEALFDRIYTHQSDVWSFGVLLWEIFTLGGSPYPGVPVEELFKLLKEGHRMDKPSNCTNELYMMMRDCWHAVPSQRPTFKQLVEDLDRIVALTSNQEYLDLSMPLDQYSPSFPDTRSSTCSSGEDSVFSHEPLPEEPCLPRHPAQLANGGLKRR
For data set [14], the target named is Receptor-type tyrosine-protein kinase FLT3 (Homo sapiens) (UniProt P36888). The experiment in a line: Inhibition of FLT3-mediated signalling pathway in human MV4-11 cells assessed as inhibition of STAT5 phosphorylation at 50 nM by western blot analysis. The data set is classed as cell-based. As to conditions: TDE = time-dependent effect.
Data set [15] has as its target T1, Receptor-type tyrosine-protein kinase FLT3 (Mus musculus). The experiment in a line: Inhibition of FLT3-mediated signalling pathway in mouse Ba/F3 FLT3-ITD cells assessed as inhibition of STAT5 phosphorylation at 50 nM by western blot analysis. The data set is classed as cell-based.
Another data set relates to Monocyte. The experiment in a line: Antiproliferative activity against human peripheral blood monocyte cells assessed as cell growth inhibition at 6 to 200 uM measured after 72 hrs by MTS assay. The class given is toxicity, cell-based. As to conditions: dose 6-200 µM.
The target in data set [16] is Receptor-type tyrosine-protein kinase FLT3 (Homo sapiens) (UniProt P36888). In words: Inhibition of FLT3 phosphorylation in human MOLM-13 cells assessed as reduction in phosphorylated FLT3 level at 0.3 to 100 nM by sandwich ELISA assay. The class given is cell-based. To be noted: dose 0.3-100 nM.
Data set [17] addresses T2, Receptor-type tyrosine-protein kinase FLT3 (Homo sapiens, UniProt P36888).
T2 sequence (P36888 whole entry): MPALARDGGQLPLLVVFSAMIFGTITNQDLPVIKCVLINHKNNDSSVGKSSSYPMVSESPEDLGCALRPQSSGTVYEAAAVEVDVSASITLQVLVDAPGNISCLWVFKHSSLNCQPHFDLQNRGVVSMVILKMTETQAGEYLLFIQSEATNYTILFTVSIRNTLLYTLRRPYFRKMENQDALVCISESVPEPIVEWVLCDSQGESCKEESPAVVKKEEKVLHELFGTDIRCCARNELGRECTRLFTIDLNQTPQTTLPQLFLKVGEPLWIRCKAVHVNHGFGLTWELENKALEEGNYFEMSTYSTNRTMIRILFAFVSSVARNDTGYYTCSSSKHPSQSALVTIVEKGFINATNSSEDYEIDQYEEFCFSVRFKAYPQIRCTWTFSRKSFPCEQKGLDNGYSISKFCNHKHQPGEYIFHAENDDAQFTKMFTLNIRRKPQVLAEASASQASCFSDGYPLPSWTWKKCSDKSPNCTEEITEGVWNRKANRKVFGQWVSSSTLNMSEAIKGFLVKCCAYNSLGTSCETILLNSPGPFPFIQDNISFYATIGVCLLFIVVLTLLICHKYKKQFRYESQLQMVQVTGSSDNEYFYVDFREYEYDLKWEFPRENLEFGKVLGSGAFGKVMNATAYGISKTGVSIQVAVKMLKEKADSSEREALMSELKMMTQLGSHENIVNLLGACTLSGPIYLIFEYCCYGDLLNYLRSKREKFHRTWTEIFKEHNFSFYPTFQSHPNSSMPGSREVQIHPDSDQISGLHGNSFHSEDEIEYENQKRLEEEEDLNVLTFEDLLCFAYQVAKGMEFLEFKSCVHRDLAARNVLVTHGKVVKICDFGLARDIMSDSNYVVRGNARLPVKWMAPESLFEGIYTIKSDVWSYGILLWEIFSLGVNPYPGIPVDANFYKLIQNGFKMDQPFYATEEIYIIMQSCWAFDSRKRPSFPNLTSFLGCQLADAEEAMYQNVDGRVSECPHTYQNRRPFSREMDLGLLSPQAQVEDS
The experiment in a line: Inhibition of FLT3 (unknown origin).

Calls of active or inactive are those of the source. The rule behind the calls is not given here.

Mast/stem cell growth factor receptor Kit, sequence (P10721 whole entry): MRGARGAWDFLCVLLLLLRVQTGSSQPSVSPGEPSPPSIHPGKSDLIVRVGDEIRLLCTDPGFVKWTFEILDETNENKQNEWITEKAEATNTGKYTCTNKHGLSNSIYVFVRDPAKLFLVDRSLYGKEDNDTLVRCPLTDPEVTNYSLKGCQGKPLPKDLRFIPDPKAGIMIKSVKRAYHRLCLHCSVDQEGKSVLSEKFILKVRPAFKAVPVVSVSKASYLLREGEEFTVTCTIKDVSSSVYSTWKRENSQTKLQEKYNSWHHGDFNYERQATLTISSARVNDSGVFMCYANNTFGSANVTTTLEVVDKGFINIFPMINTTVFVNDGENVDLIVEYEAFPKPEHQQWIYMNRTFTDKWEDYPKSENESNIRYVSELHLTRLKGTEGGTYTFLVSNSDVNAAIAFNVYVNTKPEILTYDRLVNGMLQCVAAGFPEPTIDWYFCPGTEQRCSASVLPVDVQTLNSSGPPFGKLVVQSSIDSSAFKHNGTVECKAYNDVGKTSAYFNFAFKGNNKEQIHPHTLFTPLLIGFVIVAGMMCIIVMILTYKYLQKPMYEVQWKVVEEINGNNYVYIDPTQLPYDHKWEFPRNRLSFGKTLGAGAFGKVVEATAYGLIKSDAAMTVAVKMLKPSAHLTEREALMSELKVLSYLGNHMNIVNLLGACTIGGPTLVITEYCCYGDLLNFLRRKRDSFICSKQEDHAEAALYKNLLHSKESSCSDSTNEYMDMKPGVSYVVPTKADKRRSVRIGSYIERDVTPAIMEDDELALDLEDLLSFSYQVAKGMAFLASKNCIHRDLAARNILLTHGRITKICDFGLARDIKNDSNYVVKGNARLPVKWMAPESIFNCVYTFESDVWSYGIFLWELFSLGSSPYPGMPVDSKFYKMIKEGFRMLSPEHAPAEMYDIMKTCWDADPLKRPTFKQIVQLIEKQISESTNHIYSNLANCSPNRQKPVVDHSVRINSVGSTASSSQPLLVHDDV

On to `COc1ccc(CNc2ccc3c(c2)ncn3-c2ccccc2)cc1OCCO`, for which the IC50 with HL-60 was over 50000 nM; in data set [1], over 50000 nM; in data set [2], 75.4 nM; with MOLM-13 it was 78.2 nM; in the data set on MV4-11 it was 197 nM. In [3], the IC50 at 72 h is over 400 nM.
For `CNC(=O)c1cc(Oc2ccc(NC(=O)Nc3ccc(Cl)c(C(F)(F)F)c3)cc2)ccn1` [SORAFENIB], the IC50 (in the data set with HL-60; in data set [1]) was 500 nM each time.
For `OCCOc1ccc(CNc2ccc3c(c2)ncn3-c2ccccc2)cc1OCCO`, the IC50 in the data set with HL-60 is over 50000 nM; in data set [1], over 50000 nM; in data set [2] it was 77.8 nM; in the data set on MOLM-13, 69.8 nM; in the data set on MV4-11, 167 nM. Moreover, the IC50 at 72 h in data set [3] was over 400 nM.
As for `COc1ccc(CNc2ccc3c(c2)ncn3-c2ccccc2)cc1OC`, the IC50 was 90 nM in [4]; 451 nM in data set [6]; over 50000 nM with HL-60; over 1000 nM in data set [7]; over 50000 nM in data set [1]; 94.8 nM in [2]. For the same compound, the IC50 is over 1000 nM in data set [13], 113 nM in the data set on MOLM-13, 30 nM in data set [17] and 189 nM with MV4-11. In addition, the inhibition entry in data set [5], in [12], in data set [15] and in [16] was “Active” in each case. The Activity was 10 nM in data set [8], 1 nM in data set [9] and “Not Active” in the data set with Monocyte. Moreover, the inhibition entry in data set [10], in data set [11] and in [14] was “Tde” throughout. The IC50 at 72 h in [3] is over 400 nM.
